Article PMC8157947, “Peptidic boronic acids are potent cell-permeable inhibitors of the malaria parasite egress serine protease SUB1” (Proceedings of the National Academy of Sciences of the …, 2021)

How the values were obtained:
P. falciparum schizonts [1] = test: MitoTracker Red CMXRos viability staining; format: cell-based, Plasmodium falciparum; details: 10 μM, 1 h
Method: Viewing chambers for live parasite microscopic examination were constructed as previously described ([7]). All images were recorded on a Nikon Eclipse Ni light microscope fitted with a Hamamatsu C11440 digital camera and Nikon N Plan Apo λ 63×/1.45NA oil immersion objective. For time-lapse video microscopy, differential interference contrast (DIC) images were taken at 10 s intervals over 30 min while fluorescence (mNeon Green) images were taken every 2 min to prevent bleaching. Time-lapse videos were analyzed and annotated using Fiji ([44]). For viability staining using the vital mitochondrial dye MitoTracker Red CMXRos (ThermoFisher Scientific; stored as a 10 μM stock in DMSO), the dye was added (20 nM final concentration) to a suspension of schizonts pretreated for 1 h with either DMSO (control, 1% vol/vol) or compound 3j (10 μM). The schizonts were incubated with the dye for 15 min at 37 °C, then washed twice, transferred to a viewing chamber, and observed immediately by dual DIC/fluorescence microscopy.

[2] = system: asexual blood-stage P. falciparum (clone 3D7); test: SYBR Green I parasite growth assay; format: cell-based, Plasmodium falciparum
Method: The impact of the peptidic boronic acids on replication of asexual blood-stage P. falciparum (clone 3D7) was assessed using a SYBR Green I assay, essentially as described by Smilkstein et al. ([22]). Briefly, test compounds (dissolved in dimethyl sulfoxide [DMSO] at concentrations ranging from 4 mM to 5 μM) were added in triplicate to wells of flat bottomed, 96-well microtitre plates (1 μL per well). Wells were then supplemented with 100 μL per well of a P. falciparum parasite culture at 0.1% parasitaemia, 1% hematocrit. Each assay plate also included DMSO-only control wells (1% vol/vol), as well as additional control wells containing uninfected RBCs only. Plates were incubated in sealed, humidified gassed chambers at 37 °C for 96 h to allow the parasites to undergo two entire cycles of erythrocytic growth. Wells were then supplemented with 100 μL 1:5,000 dilution of stock SYBR Green I (Life Technologies, catalog no. S7563) diluted in 20 mM Tris HCl pH 7.5, 5 mM EDTA, 0.008% (weight/vol) saponin, 0.08% (vol/vol) Triton ×100. Plates were agitated to mix, incubated for a further 1 h in the dark at room temperature, then 150 μL samples from each well transferred to a fresh white microwell plate and fluorescence quantified using a SpectraMax M5e plate reader and SoftMax Pro-6.3 software (Ex 485 nm/Em 530 nm). IC50 values were determined from dose–response curves obtained after subtracting background fluorescence values (obtained from the RBC-only wells) from all experimental readings.

[3] = molecular target: T1, recombinant PfSUB1 (rPfSUB1) (Plasmodium falciparum, UniProt Q8I0V0); test: rPfSUB1 fluorogenic peptide substrate cleavage inhibition assay; format: biochemical; details: versus mammalian trypsin, chymotrypsin and elastase
T1 construct: Chymotrypsin-treated rPfSUB1 (expressed and purified as described previously); made in house

P. falciparum schizonts [4] = test: Washout egress assay, hemoglobin release into culture supernatants; format: cell-based; details: Plasmodium falciparum; 4 h pretreatment, then washout
Method: (§1) Short-term egress, invasion, and washout assays were performed essentially as described previously ([27], [28], [42]). Briefly, highly synchronous mature Percoll-enriched schizonts with or without added fresh RBCs (∼5% parasitaemia final) were incubated with compounds under test or vehicle only (DMSO, 1% vol/vol). For washout assays, schizonts were treated with C2 or various concentrations of inhibitor 3j for 1 to 4 h, then washed extensively (at least four times) prior to addition to fresh RBCs where required. After incubation at 37 °C for just 1 to 4 h (or overnight for invasion assays) to allow schizont rupture, cells were pelleted. Clarified culture supernatants were assessed for extent of hemoglobin release (a measure of schizont rupture) by absorption spectroscopy at 415 nm as described previously ([28]) or analyzed by Western blot using antibodies against SERA5 ([7], [11]). To quantify generation of new rings, samples of the cultures were fixed with 4% paraformaldehyde/0.02% glutaraldehyde and stained with SYBR Green I (Life Technologies) and then analyzed by flow cytometry on a BD FACSVerse using BD FACSuite software. Data were analyzed using FlowJo software. All cultures were also routinely analyzed by microscopic examination of Giemsa-stained thin films to visually assess parasite morphology.

[5] = system: P. falciparum schizonts expressing EXP2-mNeonGreen; test: Time-lapse video microscopy of egress after compound washout; format: cell-based, Plasmodium falciparum; details: 10 μM, 30 min monitoring after washout
P. falciparum schizonts [6] = test: Ring formation after pretreatment of schizonts and washout; format: cell-based, Plasmodium falciparum; details: pretreated schizonts washed, fresh RBCs, assessed at 24 h; 3j 10 μM, C2 1 μM
Method: as §1

elastase = test: Elastase inhibition assay (MeOSuc-AAPV-AMC cleavage); format: biochemical; details: porcine elastase; estimated
Method: Assays for assessing inhibition of elastase a c t i vit y (from porcine pancreas; Sigm a-Aldrich E7885) were based on c leavage of the fluorogenic peptide substrate MeOSuc-AAPV-AMC (Sigm a- Aldrich […]
324740). Elastase was dissolved in 1 m M HCl, 2 m M CaCl2 to produce a stock solutio n of 1 mg/ml […]
(38.6 µM). F or inhibition as says , 100 µl of 1 µg/m l (38.6 nM) elastase in 25 m M T ris -HCl pH 8.2, […]
15 m M CaC l2 was d ispense d into we lls of whit e 9 6- we ll m icrowe ll p lates (Nunc), and pre- incubated […]
for 5 m in wi th com pound 3j at concentr ations ranging from 0-20 µM before addition of substrate […]
(10 µM f inal). F luorescence increase was m onitored continuousl y with tim e as above. PMSF was used as a positive inh ib itor control as above. All m easurem ents were perform ed in duplicate.

T1 sequence (Q8I0V0 218-688): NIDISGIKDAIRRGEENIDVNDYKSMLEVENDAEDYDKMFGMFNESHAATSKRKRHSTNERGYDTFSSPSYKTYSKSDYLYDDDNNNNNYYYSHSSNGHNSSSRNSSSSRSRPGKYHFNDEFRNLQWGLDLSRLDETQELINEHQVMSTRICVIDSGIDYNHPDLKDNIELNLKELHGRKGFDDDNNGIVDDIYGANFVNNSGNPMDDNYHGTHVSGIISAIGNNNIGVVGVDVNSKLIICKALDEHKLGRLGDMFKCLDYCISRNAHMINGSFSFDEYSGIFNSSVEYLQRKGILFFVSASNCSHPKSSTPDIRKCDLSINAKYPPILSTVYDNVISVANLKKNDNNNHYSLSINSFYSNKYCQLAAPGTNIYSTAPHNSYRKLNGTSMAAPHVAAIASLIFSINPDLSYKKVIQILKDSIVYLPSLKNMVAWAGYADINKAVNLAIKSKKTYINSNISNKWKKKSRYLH

Compound: CC(=O)NC(C(=O)NC(C(=O)NCC(=O)NC(C)B(O)O)C(C)C)C1CCCC1 (stereo not drawn) [3j]
- viability (MitoTracker Red CMXRos incorporation) (P. falciparum schizonts [1]): remained viable
- EC50 ([2]; Plasmodium falciparum, 3D7, 96 h, two erythrocytic growth cycles, SYBR Green I): 0.26 ± 0.06 µM
- improved growth inhibitory potency ([2]; relative to compound 3b): ~10 fold
- higher potency in long-term growth assay ([2]; relative to short-term egress assays): ~10 fold
- selectivity for PfSUB1 [3]: > 100 fold
- EC50 (P. falciparum schizonts [4]): ~2000 nM
- egress following washout [5]: no egress occurred over the course of 30 min
- ring production after washout (P. falciparum schizonts [6]): No rings were produced
- elastase IC50 relative to that for PfSUB1 (elastase): > 100 fold
